Experimental data reported in patent US20090180956A1, “DIAGNOSTIC FOR EVALUATING GASTRIC EVACUATION FUNCTION AND/OR SMALL INTESTINAL ABSORPTION FUNCTION” (priority 2006, published 2009).
Read-outs that look alike come from different tables or passages of the source.

Legend:
[1] = 2 mg/ml/kg into the duodenum
Description: Overnight-fasted Wistar male rats (8 week-old; Nippon Charles River) were subjected to a laparotomy under anesthesia and treated as follows: (1) ligated at 3 cm from the pylorus (n=1), (2) ligated at 6 cm from the pylorus (n=1), and (3) not ligated (no treatment) (n=2).
[1,4-^13C]-succinic acid (ICON) was administered into the duodenum upstream of the ligation at 2 mg/ml/kg. The breath after the administration was collected.
(§1) Briefly, the breath was collected at a rate of about 100 to 300 ml/min using a stroke pump (Variable Stroke Pump VS-500; Shibata Kagaku Kogyo), and the CO2 concentration therein was maintained at about 3%. A Perma Pure Drier (MD-050-12P; Perma Pure INC.) was set between the rat holder and the stroke pump to remove moisture from the breath. When the CO2 concentration was stabilized, the rat under anesthesia was subjected to a laparotomy. After ligation of the pylorus, [1,4-^13C]-succinic acid solution was injected into the duodenum with an injection syringe (1 ml) to thereby achieve administration into the duodenum. A breath sample ([…]) collected with the syringe was sealed in a vacuum vial (10 ml) and subjected to automated analysis by GC-MS (Breath MAT) [FinniganMAT]. Δ^13C (‰) was calculated from δ^13C values which are ^13C values of the breath sample (i.e. differences from the standard substance PDB) using the following formula.
Δ^13C (‰)=(δ^13C)t min−(δ^13 C) 0 min (Formula 1)
• Apparatus: Breath MAT plus (Finnigan) • Carrier gas: He • Measured ions: m/z=44, 45, 46

[2] = 2 mg/ml/kg into the duodenum; remark: listed apart in the source
Description: as §1
Falling out of small intestinal villi was induced in Wistar male rats (9 week-old; n=4; Nippon Charles River) by repeatedly injecting injectable methotrexate (MTX; Takeda Chemical Industries) dissolved in physiological saline between the back and the skull subcutaneously at 2.5 mg/kg/day (see J. Nutr. Vol. 126, p. 2519 (1996); Scand. J. Gastroenterol. Vol. 39 p. 1015 (2004)). The conditions of the repeated administration were 3 day administration, 2 day interval and 3 day administration (total administration period: 6 days) (MTX administration group; n=4). Non-administration group (n=2) was also tested as control group.
On day 9 after the start of MTX administration, [1,4-^13C]-succinic acid (ICON) was administered into the duodenum of overnight-fasted rats under anesthesia at 2 mg/ml/kg to perform a breath test.

[3] = 4 mg/ml/kg femoral vein
Description: (§2) Briefly, STZ was administered to 2-day postnatal rats subcutaneously at a dose of 90 mg/kg. STZ was dissolved in citrate buffer (pH 4.5) in advance, and administration was completed within 5 minutes after the dissolving. Two days thereafter, a blood sample was collected from the heart and subjected to measurement of casual plasma glucose with Terumo Mediace (blood glucose measuring set). Individuals showing a level of 275 mg/dl or more were selected.
(§3) The time course of the increase ratio of ^13C concentration (Δ^13C (‰)) in exhaled CO2 after administration was examined for 20 minutes, and plotted every 5 minutes.

[4] = 13C-labeled sodium acetate breath test, diabetic model rats (nSTZ group) versus control group; details: 10 mg/ml/kg femoral vein
Description: as §2, §3

[5] = rat, in vivo, 2000 mg/kg; cited from earlier work

O=[13C](O)CC[13C](=O)O [[1,4-^13C]-succinic acid]
increase ratio of 13C concentration (Δ13C) in exhaled CO2 ([1]; not ligated rats, at 6 minutes): 130 ‰ | increase ratio of 13C concentration (Δ13C) in exhaled CO2 ([1]; not ligated rats, at 15 minutes): 95 ‰ | increase ratio of 13C concentration (Δ13C) in exhaled CO2 ([1]; rat ligated at 3 cm from the pylorus, at 4 minutes): 14 ‰ | increase ratio of 13C concentration (Δ13C) in exhaled CO2 ([1]; rat ligated at 3 cm from the pylorus, at 6 minutes): 30 ‰ | increase ratio of 13C concentration (Δ13C) in exhaled CO2 ([1]; rat ligated at 3 cm from the pylorus, at 16 minutes): 71 ‰ | increase ratio of 13C concentration (Δ13C) in exhaled CO2 ([1]; rat ligated at 6 cm from the pylorus, at 4 minutes): 33 ‰ | increase ratio of 13C concentration (Δ13C) in exhaled CO2 ([1]; rat ligated at 6 cm from the pylorus, at 6 minutes): 57 ‰ | increase ratio of 13C concentration (Δ13C) in exhaled CO2 ([1]; rat ligated at 6 cm from the pylorus, at 16 minutes): 96 ‰ | increase ratio of 13C concentration (Δ13C) in exhaled CO2 ([2]; MTX administration group, at 15 minutes): 68±37 ‰ | increase ratio of 13C concentration (Δ13C) in exhaled CO2 ([2]; control group (MTX non-administration), at 10 minutes): 154 ‰ | increase ratio of 13C concentration (Δ13C) in exhaled CO2 ([2]; control group (MTX non-administration), at 20 minutes): 81 ‰ | difference in Δ13C between control group and nSTZ group ([3]; 20 minutes breath test): no difference was observed | increase ratio of 13C concentration (Δ13C) in exhaled CO2 ([3]; control group, at 5 minutes): 193±20 ‰ | increase ratio of 13C concentration (Δ13C) in exhaled CO2 ([3]; control group, at 20 minutes): 99±4 ‰ | increase ratio of 13C concentration (Δ13C) in exhaled CO2 ([3]; nSTZ group, at 5 minutes): 202±28 ‰ | increase ratio of 13C concentration (Δ13C) in exhaled CO2 ([3]; nSTZ group, at 20 minutes): 93±4 ‰

C[13C](=O)[O-].[Na+] [[1-^13C]-sodium acetate]
increase ratio of 13C concentration (Δ13C) in exhaled CO2 ([4]; control group, at 5 minutes): 154±11 ‰ | increase ratio of 13C concentration (Δ13C) in exhaled CO2 ([4]; control group, at 20 minutes): 153±5 ‰ | increase ratio of 13C concentration (Δ13C) in exhaled CO2 ([4]; nSTZ group, at 5 minutes): 214±30 ‰ | increase ratio of 13C concentration (Δ13C) in exhaled CO2 ([4]; nSTZ group, at 20 minutes): 133±2 ‰ | difference in Δ13C between control group and nSTZ group ([4]; values at 5 minutes and at 20 minutes): Significant difference (p<0.005)

O=C(O)CCC(=O)O [disodium succinate hexahydrate]
abnormalities in single administration toxicity test [5]: does not cause abnormalities
